Entries after “also recorded” stand apart in the source; their conditions may differ.
Columns and labels:
Nampt^+/− mice = experiment: Intraperitoneal glucose tolerance test (IPGTT) after NMN administration in Nampt+/- mice; type: in vivo, mouse
Method: Intraperitoneal glucose tolerance tests (IPGTTs) were conducted with a does of 3 g dextrose/kg body weight on Nampt^+/− and Nampt^+/+ siblings. For the IPGTTs, after mice were injected with PBS or NMN (500 mg/kg body weight) and fasted for 12-14 hours, dextrose (3 g/kg body weight) was injected intraperitoneally, and blood glucose levels were measured at 0, 15, 30, 60, and 120 min after injection. Plasma was also collected at 0 and 30 min time points after glucose injection and submitted for insulin measurements to the Washington University RIA Core facility. For the ITTs, after female mice were fasted for 4 hours, human insulin (0.75 U/kg body weight) (Lilly) was injected intraperitoneally to these mice, and blood glucose levels were measured at 0, 15, 30, 45, and 60min after insulin injection.
If the NAD biosynthetic activity of Nampt is responsible for the phenotypes observed in Nampt^+/− mice, the administration of NMN, a product of the Nampt enzymatic reaction, should be able to correct their problems. To test this possibility, the same Nampt^+/− mice that were used for IPGTTs were injected with NMN at a dose of 500 mg/kg body weight intraperitoneally ˜14 hrs prior to IPGTTs. As a control, PBS was injected to the mice ˜14 hrs before conducting previous IPGTTs. […] Blood glucose levels were monitored with a glucometer at 0, 30, and 60 min time points after injection.

C57BL/6 mice = experiment: Blood glucose levels after intraperitoneal injection in fasted C57BL/6 mice; type: in vivo, mouse; settings: for effect on blood glucose levels at lower dose: 50 mg/kg intraperitoneal, compared with 500 mg/kg; for blood glucose levels: 4-hr fast, 0-120 min after injection
Method: In this Example, five adult mice (C57BL/6; male; 3-4 months of age) were subjected to a 4-hr fast followed by intraperitoneal injection (500 mg/kg; 50 mg/kg) of nicotinamide, nicotinamide mononucleotide (NMN), or nicotinamide adenine dinucleotide (NAD). A control group of five fasted mice ([…]) were injected with PBS.
Blood glucose levels were measured from tail vein blood samples with an Accu-Chek glucometer (Roche Diagnostics) at 0, 15, 30, 60 and 120 min after injection.

B6 mice = experiment: Toxicity of NMN dose in B6 mice; type: in vivo, mouse; settings: NMN 500 mg/kg body weight
Source text: Therefore, it will be of great interest to examine whether NMN administration also alleviates the effects of Nampt haplodeficiency in HFD-fed Nampt^+/− mice and even improves the symptoms in HFD-fed Nampt^+/+ mice. […] NMN administration causes an acute increase in blood glucose within 2 hrs, probably due to the rapid release of calcium and eicosanoid in the liver (Broetto-Biazon et al., Eur. J. Pharmacol., (2004) 484, 291-301). Therefore, physiological tests will be conducted ˜14 hrs after NMN injection, as described in Example 18.

NIH3T3 cells = experiment: Total cellular NAD levels in NIH3T3 cells by HPLC; type: cell-based, mouse; settings: addition of 5 mM nicotinamide to the medium (otherwise 33 μM)
Method: Total cellular levels of NAD was measured in the NIH3T3 cell lines overexpressing the untagged enzymes. High performance liquid chromatography was used to measure NAD (Neubert et al., Biochim. Biophys. Acta., (1964) 92, 610-612; Emanuelli et al., J. Chromatogr., (1996) B. 676, 13-18). Briefly, 5×10^5 cells were plated in 6 cm dishes and harvested 48 h later in 800 μl of ice-cold PBS. Cells were then spun down and lysed with 300 μl of 1M HClO4 on ice for 10 min. Lysates were cleared by centrifugating at 4° C. at 18,000 g for 5 minutes. Cleared lysates (240 μl) were neutralized by adding 80 μl of 3M K2CO3 and incubating on ice for 10 minutes. After centrifuging for 10 min, 100 μl of the supernatant were mixed with 400 μl of Buffer A and loaded onto the column. The HPLC was run at a flow rate of 1 ml/min with 100% Buffer A from 0 to 5 min, a linear gradient to 95% Buffer A and 5% Buffer B (100% methanol) from 5 to 6 min, 95% Buffer A and 5% Buffer B from 6 to 11 min, a linear gradient to 85% Buffer A and 15% Buffer B from 11 to 13 min, 85% Buffer A and 15% Buffer B from 13 to 23 min, and a linear gradient to 100% Buffer A from 23 to 24 min. NAD was eluted as a sharp peak at 22 min. The amount of NAD was quantitated based on the peak area compared to a standard curve.

HIB-1B adipocytes = experiment: Secretion assay with brefeldin A in differentiated HIB-1B adipocytes (Western blot); type: cell-based, mouse; settings: BFA 0.5 ug/ml, 12 hours, differentiated HIB-1B adipocytes (day 8)
Method: HIB-1B cells expressing Nampt-FLAG, Dhfr-FLAG, and Ppl-FLAG were differentiated to mature adipocytes (day 8) in 10-cm dishes, and their cell extracts were collected and immunoprecipitated as described above. Culture supernatant (˜8 ml) were collected and immunoprecipitated overnight at 4° C. with anti-FLAG antibody-conjugated beads, washed twice with PBS, and analyzed by Western Blot with rabbit polyclonal anti-FLAG antibody (Sigma, MO).
Brefeldin A (BFA), a potent inhibitor of the classical secretory pathway, was added to examine if Nampt-FLAG® is secreted through the ER-Golgi system. Fully differentiated HIB-1B adipocytes (day 8) were treated with BFA (0.5 ug/ml, Sigma, MO) for 12 hours, and cell extracts and culture supernatants were collected and analyzed as described above.

[1] = test system: Chinese hamster ovary (CHO) cells; experiment: Secretion assay with brefeldin A in transfected CHO cells (Western blot); type: cell-based; settings: BFA-treated transfected CHO cells
Method: Cell extracts and culture supernatants were collected 48 hours after transfection, and subjected to immunoprecipitation with anti-FLAG® antibody-conjugated beads as described above, and analyzed by Western Blot with rabbit polyclonal anti-FLAG® antibody (Sigma, MO). Cells were also treated with BFA as described above.

[2] = test system: mouse mammary carcinoma model; settings: eight intraperitoneal injections, 25 mg/kg per injection, 12-hour interval; Muruganandham et al. 2005; cited from earlier work

NC(=O)c1ccc[n+]([C@@H]2O[C@H](COP(=O)([O-])O)[C@@H](O)[C@H]2O)c1 [NMN, Nicotinamide mononucleotide]
glucose tolerance in IPGTT (Nampt^+/− mice; NMN 500 mg/kg intraperitoneally ~14 hrs prior to IPGTT, Nampt+/- mice compared to Nampt+/+): no longer showed impaired glucose tolerance; also recorded: corrected impaired glucose tolerance; also recorded: can correct | glucose-stimulated insulin secretion (plasma insulin) in IPGTT (Nampt^+/− mice; NMN 500 mg/kg intraperitoneally ~14 hrs prior, 30 min after glucose injection, Nampt+/- mice): robust insulin secretion similar to that in Nampt^+/+ mice; also recorded: corrected | effect on blood glucose levels at lower dose (C57BL/6 mice): weaker | blood glucose levels (C57BL/6 mice; 500 mg/kg intraperitoneal): significantly increased | time within which the acute increase in blood glucose occurs after administration (C57BL/6 mice; NMN administration): ≤ 2 h | toxicity (B6 mice): not cause any obvious toxicity

NC(=O)c1cccnc1 [nicotinamide, 3-pyridinecarboxamide]
total cellular NAD level (NIH3T3 cells): did not increase NAD | effect on blood glucose levels at lower dose (C57BL/6 mice): weaker | blood glucose levels (C57BL/6 mice; 500 mg/kg intraperitoneal): significantly increased

C[C@H]1CCC/C=C/[C@@H]2C[C@H](O)C[C@H]2[C@H](O)/C=C/C(=O)O1 [BFA, Brefeldin A]
eNampt levels in supernatant (extracellular Nampt secretion) (HIB-1B adipocytes): not affected; also recorded: not inhibited | secretion of Prl-FLAG (HIB-1B adipocytes): significantly inhibited | secretion of Prl-FLAG (HIB-1B adipocytes; listed as brefeldin A): inhibited | secretion of Prl-FLAG [1]: significantly inhibited | secretion of extracellular Nampt [1]: unaffected

O=C(/C=C/c1cccnc1)NCCCCC1CCN(C(=O)c2ccccc2)CC1 [FK866]
inhibition of NAD biosynthesis in vivo [2]: effective to inhibit NAD biosynthesis | toxicity [2]: without any obvious toxicity

NC(=O)c1ccc[n+]([C@@H]2O[C@H](COP(=O)([O-])OP(=O)(O)OC[C@H]3O[C@@H](n4cnc5c(N)ncnc54)[C@H](O)[C@@H]3O)[C@@H](O)[C@H]2O)c1 [NAD, Nicotinamide adenine dinucleotide]
effect on blood glucose levels at lower dose (C57BL/6 mice): weaker | blood glucose levels (C57BL/6 mice; 500 mg/kg intraperitoneal): significantly increased | kinetics of glucose increase (C57BL/6 mice; 500 mg/kg intraperitoneal, comparison between compounds): much more pronounced and long-lasting effect

Reference: patent US7737158B2, “Processes for regulating blood glucose in a mammal” (Washington University, priority 2005, dated 2010)
